Data published in patent US20180186814A1, “TRICYCLIC COMPOUND HAVING SULFINYL OR SULFONYL” (Shionogi & Co., Ltd., priority 2015, published 2018).
In brackets after ≈: the same amount, converted by molar mass.

Legend:
Assay type in all cases: cell-based
E. cloacae ATCC13047 = test: MIC by microbroth dilution (CLSI), strain No. 1; settings: E. cloacae ATCC13047, AmpC, ceftazidime-resistant, cefepime-sensitive, cation-adjusted Mueller-Hinton broth; for MIC: Enterobacter cloacae, read-out: minimum inhibitory concentration (MIC), Strain No. 1
Method: (§1) The minimum inhibitory concentration (MIC) was measured by the microbroth dilution method in accordance with the procedures recommended by CLSI (Clinical and Laboratory Standards Institute) using 1×10^5 CFU/mL as an inoculum dose and a cation-adjusted Mueller-Hinton broth as a test medium.
(§2) The strains used are as described in the table below.

K. pneumoniae SR01453 = test: MIC by microbroth dilution (CLSI), strain No. 3; settings: K. pneumoniae SR01453, NDM-1, MBL-producing strain, carbapenem-resistant, cation-adjusted Mueller-Hinton broth; for MIC: Klebsiella pneumoniae, read-out: minimum inhibitory concentration (MIC), Strain No. 3
Method: as §1, §2

K. pneumoniae NCTC13443 = test: MIC by microbroth dilution (CLSI), strain No. 4; settings: K. pneumoniae NCTC13443, NDM-1, MBL-producing strain, carbapenem-resistant, cation-adjusted Mueller-Hinton broth; for MIC: Klebsiella pneumoniae, read-out: minimum inhibitory concentration (MIC), Strain No. 4
Method: as §1, §2

E. cloacae SR36276 = test: MIC by microbroth dilution (CLSI), strain No. 5; settings: E. cloacae SR36276, AmpC, highly AmpC-producing strain, ceftazidime-resistant, cefepime-sensitive, cation-adjusted Mueller-Hinton broth; for MIC: Enterobacter cloacae, read-out: minimum inhibitory concentration (MIC), Strain No. 5
Method: as §1, §2

E. coli SR09613 = test: MIC by microbroth dilution (CLSI), strain No. 6; settings: for MIC: Escherichia coli, SR09613, read-out: minimum inhibitory concentration (MIC), Strain No. 6; for minimum inhibitory concentration (MIC), Strain No. 6: E. coli SR09613, CMY-2 type, plasmid AmpC-producing strain, ceftazidime-resistant, cefepime-sensitive, cation-adjusted Mueller-Hinton broth
Method: as §1, §2

E. coli SR09616 = test: MIC by microbroth dilution (CLSI), strain No. 7; settings: for MIC: Escherichia coli, SR09616, read-out: minimum inhibitory concentration (MIC), Strain No. 7; for minimum inhibitory concentration (MIC), Strain No. 7: E. coli SR09616, CMY-2 type, plasmid AmpC-producing strain, ceftazidime-resistant, cefepime-sensitive, cation-adjusted Mueller-Hinton broth
Method: as §1, §2

Row | Compound | MIC (E. cloacae ATCC13047) [µg/mL] | MIC (K. pneumoniae SR01453) [µg/mL] | MIC (K. pneumoniae NCTC13443) [µg/mL] | MIC (E. cloacae SR36276) [µg/mL] | MIC (E. coli SR09613) [µg/mL] | MIC (E. coli SR09616) [µg/mL] | minimum inhibitory concentration (MIC), Strain No. 1 (E. cloacae ATCC13047) [µg/mL] | minimum inhibitory concentration (MIC), Strain No. 3 (K. pneumoniae SR01453) [µg/mL] | minimum inhibitory concentration (MIC), Strain No. 4 (K. pneumoniae NCTC13443) [µg/mL] | minimum inhibitory concentration (MIC), Strain No. 5 (E. cloacae SR36276) [µg/mL] | minimum inhibitory concentration (MIC), Strain No. 6 (E. coli SR09613) [µg/mL] | minimum inhibitory concentration (MIC), Strain No. 7 (E. coli SR09616) [µg/mL]
1 | Nc1nc(/C(=N/OC(CO)CO)C(=O)N[C@@H]2C(=O)N3[C@@H]2[S@@+]([O-])C[C@@H]2CC(=O)O[C@@]23C(=O)O)cs1 [Compound I-052] | 0.063 (≈ 0.122 µM) | ≤ 0.031 | 0.5 (≈ 0.966 µM) | 0.125 (≈ 0.242 µM) | ≤ 0.031 | 0.063 (≈ 0.122 µM) |  |  |  |  |  | 
2 | Nc1nc(/C(=N/OCS(=O)(=O)O)C(=O)N[C@@H]2C(=O)N3[C@@H]2[S@@+](O)C[C@@H]2CC(=O)O[C@@]23C(=O)O)cs1 [Compound I-047] |  |  |  |  |  |  | 0.25 | 0.25 | 2 | 0.25 | 0.063 | 0.25
3 | Nc1nc(/C(=N/OCC(=O)NO)C(=O)N[C@@H]2C(=O)N3[C@@H]2[S+](O)C[C@@H]2CC(=O)O[C@@]23C(=O)O)cs1 (some centres unmarked) [Compound I-049] |  |  |  |  |  |  | 0.125 | 0.063 | 2 | 0.5 | 0.063 | 0.5
4 | NC(=O)NCCO/N=C(\C(=O)N[C@@H]1C(=O)N2[C@@H]1[S@@+]([O-])C[C@@H]1CC(=O)O[C@@]12C(=O)O)c1csc(N)n1 [Compound I-056] | 0.5 (≈ 0.944 µM) | 0.5 (≈ 0.944 µM) |  | 2 (≈ 3.78 µM) | 0.5 (≈ 0.944 µM) | 2 (≈ 3.78 µM) |  |  |  |  |  | 
5 | CONC(=O)CO/N=C(\C(=O)N[C@@H]1C(=O)N2[C@@H]1[S+](O)C[C@@H]1CC(=O)O[C@@]12C(=O)O)c1csc(N)n1 (some centres unmarked) [Compound I-048] | 0.25 | 0.125 | 4 | 1 | 0.125 | 0.5 |  |  |  |  |  | 
6 | Nc1nc(/C(=N/OC[C@H](O)CO)C(=O)N[C@@H]2C(=O)N3[C@@H]2[S@@+]([O-])C[C@@H]2CC(=O)O[C@@]23C(=O)O)cs1 [Compound I-050] | 0.5 (≈ 0.966 µM) | 0.5 (≈ 0.966 µM) | 4 (≈ 7.73 µM) | 1 (≈ 1.93 µM) | 0.5 (≈ 0.966 µM) | 4 (≈ 7.73 µM) |  |  |  |  |  | 
7 | Nc1nc(/C(=N/OC[C@@H](O)CO)C(=O)N[C@@H]2C(=O)N3[C@@H]2[S@@+]([O-])C[C@@H]2CC(=O)O[C@@]23C(=O)O)cs1 [Compound I-044] | 0.5 (≈ 0.966 µM) | 1 (≈ 1.93 µM) | 2 (≈ 3.86 µM) | 1 (≈ 1.93 µM) | 0.25 (≈ 0.483 µM) | 1 (≈ 1.93 µM) |  |  |  |  |  | 
8 | N#CCO/N=C(\C(=O)N[C@@H]1C(=O)N2[C@@H]1[S@@+]([O-])C[C@@H]1CC(=O)O[C@@]12C(=O)O)c1csc(N)n1 [Compound I-039] | 0.5 (≈ 1.04 µM) | 0.125 (≈ 0.259 µM) | 4 (≈ 8.29 µM) | 2 (≈ 4.15 µM) | 0.25 (≈ 0.518 µM) | 1 (≈ 2.07 µM) |  |  |  |  |  | 
